Laboratory results published in patent US12637473B2, “MDM2 protein degraders” (THE REGENTS OF THE UNIVERSITY OF MICHIGAN, priority 2016, dated 2026).

test system: MV4-11 cell line; test: CellTiter-Glo Luminescent Cell Viability Assay, cell growth inhibition; assay type: cell-based; conditions: Homo sapiens, 96 h, 4 days
Protocol: (§1) Cell growth inhibitory activity of representative MDM2 protein degraders was determined using CellTiter-Glo® Luminescent Cell Viability Assay. Cells were seeded in 384-well white opaque cell culture plates at a density of 2,000 cells/well with serially diluted compounds and incubated at 37° C. in an atmosphere of 95% air and 5% CO2 for 4 days. Cell viability was determined using the CellTiter-Glo® Luminescent Cell Viability Assay Kit (Promega, Madison, WI) according to the manufacture's instruction. Briefly, a volume of CellTiter-Glo® Reagent equal to the volume of cell culture medium was added to each well, and then the plates were incubated at room temperature for 10-20 minutes. The luminescent signal was measured using a Tecan Infinite M1000 multimode microplate reader (Tecan, Morrisville, NC). The half maximal inhibitory concentration (IC50) was calculated using the GraphPad Prism 5 software (GraphPad Software, La Jolla, CA). Cpd. […] The structure of Cpd.

In order of falling IC50:
1. O=C(COc1cccc2c1C(=O)N(C1CCC(=O)NC1=O)C2=O)NCCCCNC(=O)c1ccc(NC(=O)[C@@H]2NC3(CCCCC3)[C@@]3(C(=O)Nc4cc(Cl)ccc43)[C@H]2c2cccc(Cl)c2F)cc1 (stereo partly drawn) [Cpd. No. 1, (3′R,4'S,5′R)-6″-chloro-4′-(3-chloro-2-fluorophenyl)-N-(4-((4-(2-((2-(2,6-dioxopiperidin-3-yl)-1,3-dioxoisoindolin-4-yl)oxy)acetamido)butyl)carbamoyl)phenyl)-2″-oxodispiro[cyclohexane-1,2′-pyrrolidine-3′,3″-indoline]-5′-carboxamide]  416 nM
2. O=C(COc1cccc2c1C(=O)N(C1CCC(=O)NC1=O)C2=O)NCCCOCCOCCOCCCNC(=O)c1ccc(NC(=O)[C@@H]2NC3(CCCCC3)[C@@]3(C(=O)Nc4cc(Cl)ccc43)[C@H]2c2cccc(Cl)c2F)cc1 (stereo partly drawn) [Cpd. No. 2, (3′R,4'S,5′R)-6″-chloro-4′-(3-chloro-2-fluorophenyl)-N-(4-((1-((2-(2,6-dioxopiperidin-3-yl)-1,3-dioxoisoindolin-4-yl)oxy)-2-oxo-7,10,13-trioxa-3-azahexadecan-16-yl)carbamoyl)phenyl)-2″-oxodispiro[cyclohexane-1,2′-pyrrolidine-3′,3″-indoline]-5′-carboxamide]  157 nM

test system: RS4; 11 cell line; test: as above; assay type: cell-based; conditions: Homo sapiens, 96 h, 4 days
Protocol: as §1

In order of rising IC50:
1. O=C1CCC(N2Cc3c(NCc4cn(CCCNC(=O)c5ccc(NC(=O)[C@@H]6NC7(CCCCC7)[C@@]7(C(=O)Nc8cc(Cl)ccc87)[C@H]6c6cccc(Cl)c6F)cc5)cn4)cccc3C2=O)C(=O)N1 (stereo partly drawn) [Cpd. No. 39, (3′R,4'S,5′R)-6″-chloro-4′-(3-chloro-2-fluorophenyl)-N-(4-((3-(4-(((2-(2,6-dioxopiperidin-3-yl)-1-oxoisoindolin-4-yl)amino)methyl)-1H-imidazol-1-yl)propyl)carbamoyl)phenyl)-2″-oxodispiro[cyclohexane-1,2′-pyrrolidine-3′,3″-indoline]-5′-carboxamide]  1.5 nM
2. CC1(C)CCC2(CC1)N[C@@H](C(=O)Nc1ccc(C(=O)NCCOCCOCCNc3cccc4c3C(=O)N(C3CCC(=O)NC3=O)C4=O)cc1)[C@H](c1cccc(Cl)c1F)[C@]21C(=O)Nc2cc(Cl)ccc21 (stereo partly drawn) [Cpd. No. 52, (3′R,4'S,5′R)-6″-chloro-4′-(3-chloro-2-fluorophenyl)-N-(4-((2-(2-(2-((2-(2,6-dioxopiperidin-3-yl)-1,3-dioxoisoindolin-4-yl)amino)ethoxy)ethoxy)ethyl)carbamoyl)phenyl)-4,4-dimethyl-2″-oxodispiro[cyclohexane-1,2′-pyrrolidine-3′,3″-indoline]-5′-carboxamide]  1.5 nM
3. CC1(C)CCC2(CC1)N[C@@H](C(=O)Nc1ccc(C(=O)NCCCOCCOCCOCCCNc3cccc4c3C(=O)N(C3CCC(=O)NC3=O)C4=O)cc1)[C@H](c1cccc(Cl)c1F)[C@]21C(=O)Nc2cc(Cl)ccc21 (stereo partly drawn) [Cpd. No. 53, (3′R,4'S,5′R)-6″-chloro-4′-(3-chloro-2-fluorophenyl)-N-(4-((3-(2-(2-(3-((2-(2,6-dioxopiperidin-3-yl)-1,3-dioxoisoindolin-4-yl)amino)propoxy)ethoxy)ethoxy)propyl)carbamoyl)phenyl)-4,4-dimethyl-2″-oxodispiro[cyclohexane-1,2′-pyrrolidine-3′,3″-indoline]-5′-carboxamide]  5.2 nM
4. COc1cc(C(=O)NCCOCCOCCNc2cccc3c2C(=O)N(C2CCC(=O)NC2=O)C3=O)ccc1NC(=O)[C@@H]1N[C@@H](CC(C)(C)C)[C@](C#N)(c2ccc(Cl)cc2F)[C@H]1c1cccc(Cl)c1F (stereo partly drawn) [Cpd. No. 57, (2R,3S,4R,5S)-3-(3-chloro-2-fluorophenyl)-4-(4-chloro-2-fluorophenyl)-4-cyano-N-(4-((2-(2-(2-((2-(2,6-dioxopiperidin-3-yl)-1,3-dioxoisoindolin-4-yl)amino)ethoxy)ethoxy)ethyl)carbamoyl)-2-methoxyphenyl)-5-neopentylpyrrolidine-2-carboxamide]  13 nM
5. COc1cc(C(=O)NCCCOCCOCCOCCCNc2cccc3c2C(=O)N(C2CCC(=O)NC2=O)C3=O)ccc1NC(=O)[C@@H]1N[C@@H](CC(C)(C)C)[C@](C#N)(c2ccc(Cl)cc2F)[C@H]1c1cccc(Cl)c1F (stereo partly drawn) [Cpd. No. 58, (2R,3S,4R,5S)-3-(3-chloro-2-fluorophenyl)-4-(4-chloro-2-fluorophenyl)-4-cyano-N-(4-((3-(2-(2-(3-((2-(2,6-dioxopiperidin-3-yl)-1,3-dioxoisoindolin-4-yl)amino)propoxy)ethoxy)ethoxy)propyl)carbamoyl)-2-methoxyphenyl)-5-neopentylpyrrolidine-2-carboxamide]  14 nM
6. CCN1[C@@H](C(=O)NC23CCC(C(=O)NCCOCCOCCNC(=O)COc4cccc5c4C(=O)N(C4CCC(=O)NC4=O)C5=O)(CC2)CC3)[C@H](c2cccc(Cl)c2F)[C@]2(C(=O)Nc3cc(Cl)ccc32)C12CCCCC2 (stereo partly drawn) [Cpd. No. 45, (3′R,4'S,5′R)-6″-chloro-4′-(3-chloro-2-fluorophenyl)-N-(4-((2-(2-(2-(2-((2-(2,6-dioxopiperidin-3-yl)-1,3-dioxoisoindolin-4-yl)oxy)acetamido)ethoxy)ethoxy)ethyl)carbamoyl)bicyclo[2.2.2]octan-1-yl)-1′-ethyl-2″-oxodispiro[cyclohexane-1,2′-pyrrolidine-3′,3″-indoline]-5′-carboxamide]  35 nM
7. O=C(COc1cccc2c1C(=O)N(C1CCC(=O)NC1=O)C2=O)NCCCOCCOCCOCCCNC(=O)c1ccc(NC(=O)[C@@H]2NC3(CCCCC3)[C@@]3(C(=O)Nc4cc(Cl)ccc43)[C@H]2c2cccc(Cl)c2F)cc1 (stereo partly drawn) [Cpd. No. 2, (3′R,4'S,5′R)-6″-chloro-4′-(3-chloro-2-fluorophenyl)-N-(4-((1-((2-(2,6-dioxopiperidin-3-yl)-1,3-dioxoisoindolin-4-yl)oxy)-2-oxo-7,10,13-trioxa-3-azahexadecan-16-yl)carbamoyl)phenyl)-2″-oxodispiro[cyclohexane-1,2′-pyrrolidine-3′,3″-indoline]-5′-carboxamide]  85 nM
8. CC(C)[C@@H](CS(=O)(=O)C(C)C)N1C(=O)[C@@](C)(CC(=O)NCCCOCCOCCOCCCNc2cccc3c2C(=O)N(C2CCC(=O)NC2=O)C3=O)C[C@H](c2cccc(Cl)c2)[C@H]1c1ccc(Cl)cc1 (stereo partly drawn) [Cpd. No. 61, 2-((3R,5R,6S)-5-(3-chlorophenyl)-6-(4-chlorophenyl)-1-((S)-1-(isopropylsulfonyl)-3-methylbutan-2-yl)-3-methyl-2-oxopiperidin-3-yl)-N-(3-(2-(2-(3-((2-(2,6-dioxopiperidin-3-yl)-1,3-dioxoisoindolin-4-yl)amino)propoxy)ethoxy)ethoxy)propyl)acetamide]  98 nM
9. O=C(COc1cccc2c1C(=O)N(C1CCC(=O)NC1=O)C2=O)NCCCCNC(=O)c1ccc(NC(=O)[C@@H]2NC3(CCCCC3)[C@@]3(C(=O)Nc4cc(Cl)ccc43)[C@H]2c2cccc(Cl)c2F)cc1 (stereo partly drawn) [Cpd. No. 1, (3′R,4'S,5′R)-6″-chloro-4′-(3-chloro-2-fluorophenyl)-N-(4-((4-(2-((2-(2,6-dioxopiperidin-3-yl)-1,3-dioxoisoindolin-4-yl)oxy)acetamido)butyl)carbamoyl)phenyl)-2″-oxodispiro[cyclohexane-1,2′-pyrrolidine-3′,3″-indoline]-5′-carboxamide]  233 nM
10. CC(C)[C@@H](CS(=O)(=O)C(C)C)N1C(=O)[C@@](C)(CC(=O)NCCOCCOCCNc2cccc3c2C(=O)N(C2CCC(=O)NC2=O)C3=O)C[C@H](c2cccc(Cl)c2)[C@H]1c1ccc(Cl)cc1 (stereo partly drawn) [Cpd. No. 60, 2-((3R,5R,6S)-5-(3-chlorophenyl)-6-(4-chlorophenyl)-1-((S)-1-(isopropylsulfonyl)-3-methylbutan-2-yl)-3-methyl-2-oxopiperidin-3-yl)-N-(2-(2-(2-((2-(2,6-dioxopiperidin-3-yl)-1,3-dioxoisoindolin-4-yl)amino)ethoxy)ethoxy)ethyl)acetamide]  404 nM
11. Cc1ncsc1-c1ccc(CNC(=O)[C@@H]2C[C@@H](O)CN2C(=O)[C@@H](NC(=O)CCOCCOCCOCCNC(=O)c2ccc(NC(=O)[C@@H]3NC4(CCCCC4)[C@@]4(C(=O)Nc5cc(Cl)ccc54)[C@H]3c3cccc(Cl)c3F)cc2)C(C)(C)C)cc1 [compound 43]  445 nM
12. Cc1ncsc1-c1ccc(CNC(=O)[C@@H]2C[C@@H](O)CN2C(=O)[C@@H](NC(=O)CCOCCOCCNC(=O)c2ccc(NC(=O)[C@@H]3NC4(CCCCC4)[C@@]4(C(=O)Nc5cc(Cl)ccc54)[C@H]3c3cccc(Cl)c3F)cc2)C(C)(C)C)cc1 [compound 42]  677 nM
13. Cc1ncsc1-c1ccc(CNC(=O)[C@@H]2C[C@@H](O)CN2C(=O)[C@@H](NC(=O)CCCCNC(=O)c2ccc(NC(=O)[C@@H]3NC4(CCCCC4)[C@@]4(C(=O)Nc5cc(Cl)ccc54)[C@H]3c3cccc(Cl)c3F)cc2)C(C)(C)C)cc1 [compound 41]  991 nM
